Legend:
[1] = target: T1, ATP-sensitive inward rectifier potassium channel 1 (Rattus norvegicus, UniProt P35560); assay: Inhibition of rat ROMK1 expressed in HEK293 cells by Tl+ flux assay; type: cell-based
T1 sequence (P35560 whole entry): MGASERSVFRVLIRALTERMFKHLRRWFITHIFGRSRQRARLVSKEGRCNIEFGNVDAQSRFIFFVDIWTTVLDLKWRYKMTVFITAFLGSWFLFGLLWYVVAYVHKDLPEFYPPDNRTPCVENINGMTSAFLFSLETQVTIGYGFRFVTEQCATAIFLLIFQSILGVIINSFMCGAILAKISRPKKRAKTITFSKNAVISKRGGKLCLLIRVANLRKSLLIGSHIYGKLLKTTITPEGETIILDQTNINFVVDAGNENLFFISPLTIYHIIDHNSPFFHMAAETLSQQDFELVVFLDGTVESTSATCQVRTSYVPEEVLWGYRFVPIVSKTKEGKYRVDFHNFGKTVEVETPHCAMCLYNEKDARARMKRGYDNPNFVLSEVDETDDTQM

[2] = target: T2, Inward rectifier potassium channel 13 (Homo sapiens) (UniProt O60928); assay: Inhibition human Kir7.1 expressed in HEK293 cells at 10 uM by whole cell patch clamp assay relative to control; type: cell-based
T2 sequence (whole entry): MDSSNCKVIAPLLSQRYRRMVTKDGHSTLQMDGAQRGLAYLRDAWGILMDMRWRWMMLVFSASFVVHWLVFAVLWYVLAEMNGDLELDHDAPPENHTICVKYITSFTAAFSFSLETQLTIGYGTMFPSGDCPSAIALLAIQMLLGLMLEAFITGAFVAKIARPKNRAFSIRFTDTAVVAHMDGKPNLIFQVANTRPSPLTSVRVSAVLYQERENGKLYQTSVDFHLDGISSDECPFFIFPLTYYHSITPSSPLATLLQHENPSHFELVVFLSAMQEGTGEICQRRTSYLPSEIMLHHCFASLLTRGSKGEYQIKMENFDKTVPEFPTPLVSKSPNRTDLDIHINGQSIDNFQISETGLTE

[3] = target: T3, ATP-sensitive inward rectifier potassium channel 1 (Homo sapiens, UniProt P48048); assay: Inhibition of human ROMK1 expressed in HEK293 cells by Tl+ flux assay; type: cell-based
T3 sequence (P48048 whole entry): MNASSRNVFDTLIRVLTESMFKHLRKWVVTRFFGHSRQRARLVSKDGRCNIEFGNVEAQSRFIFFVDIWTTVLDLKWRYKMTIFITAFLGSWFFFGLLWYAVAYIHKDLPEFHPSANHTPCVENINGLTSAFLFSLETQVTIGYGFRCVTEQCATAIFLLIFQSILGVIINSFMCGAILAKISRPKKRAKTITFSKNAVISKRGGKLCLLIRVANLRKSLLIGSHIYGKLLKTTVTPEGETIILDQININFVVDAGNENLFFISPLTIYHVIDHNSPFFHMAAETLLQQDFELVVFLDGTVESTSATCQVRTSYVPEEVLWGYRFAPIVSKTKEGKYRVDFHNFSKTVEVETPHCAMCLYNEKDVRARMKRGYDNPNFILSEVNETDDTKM

[4] = target: Voltage-gated inwardly rectifying potassium channel KCNH2 (Homo sapiens, UniProt Q12809); assay: Inhibition of human ERG
Chain of Voltage-gated inwardly rectifying potassium channel KCNH2 (Q12809 whole entry): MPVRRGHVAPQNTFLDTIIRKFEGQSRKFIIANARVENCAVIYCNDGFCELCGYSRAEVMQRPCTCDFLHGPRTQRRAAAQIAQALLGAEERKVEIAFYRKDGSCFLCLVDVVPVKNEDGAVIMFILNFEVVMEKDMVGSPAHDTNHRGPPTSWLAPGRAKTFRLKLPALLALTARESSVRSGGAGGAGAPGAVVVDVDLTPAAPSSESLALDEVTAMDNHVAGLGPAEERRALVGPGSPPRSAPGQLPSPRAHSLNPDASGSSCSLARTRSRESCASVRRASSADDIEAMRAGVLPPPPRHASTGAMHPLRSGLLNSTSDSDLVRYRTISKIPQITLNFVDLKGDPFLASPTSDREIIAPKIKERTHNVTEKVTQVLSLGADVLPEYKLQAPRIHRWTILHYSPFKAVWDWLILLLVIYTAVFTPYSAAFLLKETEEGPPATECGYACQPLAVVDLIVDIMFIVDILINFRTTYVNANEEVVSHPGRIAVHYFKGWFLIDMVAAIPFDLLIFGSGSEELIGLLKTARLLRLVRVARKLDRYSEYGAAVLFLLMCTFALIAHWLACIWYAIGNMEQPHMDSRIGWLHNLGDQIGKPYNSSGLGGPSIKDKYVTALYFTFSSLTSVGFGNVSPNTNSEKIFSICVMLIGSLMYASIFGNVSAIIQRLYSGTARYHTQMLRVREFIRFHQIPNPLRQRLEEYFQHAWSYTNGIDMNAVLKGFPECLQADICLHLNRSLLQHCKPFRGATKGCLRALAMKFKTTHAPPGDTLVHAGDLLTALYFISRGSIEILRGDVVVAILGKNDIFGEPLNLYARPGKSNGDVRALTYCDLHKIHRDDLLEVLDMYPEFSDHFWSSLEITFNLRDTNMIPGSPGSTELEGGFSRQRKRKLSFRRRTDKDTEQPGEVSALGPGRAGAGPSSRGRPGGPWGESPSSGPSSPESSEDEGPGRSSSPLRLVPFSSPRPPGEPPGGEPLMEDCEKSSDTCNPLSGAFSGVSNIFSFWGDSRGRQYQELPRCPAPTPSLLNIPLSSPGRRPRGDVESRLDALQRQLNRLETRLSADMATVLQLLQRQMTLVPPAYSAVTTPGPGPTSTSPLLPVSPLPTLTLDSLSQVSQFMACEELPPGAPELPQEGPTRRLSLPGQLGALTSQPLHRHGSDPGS

[5] = target: T3, ATP-sensitive inward rectifier potassium channel 1; assay: Inhibition of human ROMK1 expressed in CHO cells by Tl+ flux assay; type: cell-based
[6] = Protein binding in rat plasma; type: ADME, cell-free; conditions: read-out: PPB (converted)
Homo sapiens = organism: Homo sapiens; assay: Inhibition of GABA receptor (unknown origin) at 10 uM by radioligand displacement assay relative to control
HEK293 [7] = assay: Inhibition of hamster SUR1/mouse Kir6.2 expressed in HEK293 cells at 50 uM by patch clamp electrophysiology assay relative to control; type: cell-based
[8] = target: T4, D(4) dopamine receptor (Homo sapiens) (UniProt P21917); assay: Inhibition of DRD4 (unknown origin) at 10 uM by radioligand displacement assay relative to control
T4 sequence (whole entry): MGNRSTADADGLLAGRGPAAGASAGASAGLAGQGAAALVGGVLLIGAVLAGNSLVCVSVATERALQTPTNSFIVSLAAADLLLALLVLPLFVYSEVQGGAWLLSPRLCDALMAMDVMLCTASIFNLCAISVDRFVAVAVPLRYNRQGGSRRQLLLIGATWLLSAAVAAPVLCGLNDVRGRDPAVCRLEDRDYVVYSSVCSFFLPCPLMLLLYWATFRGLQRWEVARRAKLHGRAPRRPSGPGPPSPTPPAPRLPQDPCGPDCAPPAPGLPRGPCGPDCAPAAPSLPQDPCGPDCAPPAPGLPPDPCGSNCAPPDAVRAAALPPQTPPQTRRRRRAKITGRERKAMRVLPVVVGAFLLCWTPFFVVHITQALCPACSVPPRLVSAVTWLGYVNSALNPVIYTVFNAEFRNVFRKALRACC

[9] = Stability in rat liver microsomes assessed as parent compound remaining level; type: ADME, Microsome
[10] = Inhibition of GABA receptor (unknown origin) by radioligand displacement assay; set-up: species or system Homo sapiens
[11] = Stability in human liver microsomes assessed as parent compound remaining level; type: ADME, Microsome
[12] = target: Sodium-dependent dopamine transporter (Homo sapiens) (UniProt Q01959); assay: Inhibition of dopamine transporter (unknown origin) at 10 uM by radioligand displacement assay relative to control
Chain of Sodium-dependent dopamine transporter (Homo sapiens) (Q01959 whole entry): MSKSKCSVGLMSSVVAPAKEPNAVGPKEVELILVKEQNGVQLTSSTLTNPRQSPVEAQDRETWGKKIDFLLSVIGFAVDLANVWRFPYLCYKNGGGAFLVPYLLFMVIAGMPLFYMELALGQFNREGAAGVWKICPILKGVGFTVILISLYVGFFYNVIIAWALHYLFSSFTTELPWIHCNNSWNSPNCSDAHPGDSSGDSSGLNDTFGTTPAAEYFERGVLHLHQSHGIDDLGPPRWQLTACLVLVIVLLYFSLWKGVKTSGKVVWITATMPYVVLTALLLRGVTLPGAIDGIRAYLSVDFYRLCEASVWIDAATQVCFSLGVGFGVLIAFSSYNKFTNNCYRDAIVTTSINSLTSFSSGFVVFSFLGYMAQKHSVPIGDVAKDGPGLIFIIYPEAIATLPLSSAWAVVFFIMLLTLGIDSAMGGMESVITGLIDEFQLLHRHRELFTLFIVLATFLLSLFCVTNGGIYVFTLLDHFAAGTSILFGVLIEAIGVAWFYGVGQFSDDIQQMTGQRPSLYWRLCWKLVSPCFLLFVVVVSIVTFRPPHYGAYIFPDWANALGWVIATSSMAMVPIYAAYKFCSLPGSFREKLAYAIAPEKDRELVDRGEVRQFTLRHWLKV

[13] = Protein binding in human plasma; type: ADME, cell-free; conditions: read-out: PPB (converted)
[14] = target: Sodium-dependent noradrenaline transporter (Homo sapiens) (UniProt P23975); assay: Inhibition of norepinephrine transporter (unknown origin) at 10 uM by radioligand displacement assay relative to control
Chain of Sodium-dependent noradrenaline transporter (Homo sapiens) (P23975 whole entry): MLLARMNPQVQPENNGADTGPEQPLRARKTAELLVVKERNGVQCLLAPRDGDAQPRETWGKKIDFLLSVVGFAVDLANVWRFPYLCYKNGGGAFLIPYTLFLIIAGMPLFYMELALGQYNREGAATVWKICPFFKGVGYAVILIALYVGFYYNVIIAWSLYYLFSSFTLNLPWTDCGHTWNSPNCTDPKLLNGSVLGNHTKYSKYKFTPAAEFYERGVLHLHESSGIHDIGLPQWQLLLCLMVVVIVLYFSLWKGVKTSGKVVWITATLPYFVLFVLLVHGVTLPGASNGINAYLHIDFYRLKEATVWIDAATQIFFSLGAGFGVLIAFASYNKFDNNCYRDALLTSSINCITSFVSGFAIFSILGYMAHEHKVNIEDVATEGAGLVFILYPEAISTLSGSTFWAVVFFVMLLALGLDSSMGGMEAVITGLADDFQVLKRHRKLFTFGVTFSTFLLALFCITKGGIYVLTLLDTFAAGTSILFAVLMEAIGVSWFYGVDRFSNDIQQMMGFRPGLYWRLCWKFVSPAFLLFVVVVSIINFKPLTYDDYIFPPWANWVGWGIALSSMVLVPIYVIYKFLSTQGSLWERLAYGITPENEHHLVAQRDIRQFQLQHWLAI

HEK293 [15] = assay: Inhibition of hamster SUR1/mouse Kir6.2 expressed in HEK293 cells at 10 uM by patch clamp electrophysiology assay relative to control; type: cell-based

With `O=[N+]([O-])c1ccc(CN2CCOCCOCCN(Cc3ccc([N+](=O)[O-])cc3)CCOCC2)cc1` the IC50 [1] was 0.294 µM and the inhibition [2] was 69%.

In the case of `Cc1c(C#N)cccc1[C@@H]1CN2CCN(C(=O)Cc3ccc(-n4cnnn4)cc3)C[C@H]2CO1`, the IC50 [3] is reported as 0.06 µM and the IC50 [4] is reported as 14.8 µM.

Compound `Cc1cc(-c2ncc(CNC[C@H](O)c3ccc4c(c3C)COC4=O)s2)ccc1C#N` has an IC50 [5] of 0.0066 µM.

With `C[C@H]1CC2(CCN(C[C@@H](O)c3ccc4c(ccc5nnnn54)c3)CC2)C(=O)N1C1=CC(=O)OC1` the IC50 [1] was 0.01 µM.

For `CC1=C(N2CCC3(CCN(C[C@H](O)c4ccc5c(c4)Cn4nnnc4-5)C[C@H]3F)C2=O)COC1=O` (stereo not given in full), the IC50 [1] was 0.043 µM.

In the case of `Cc1c([C@@H]2CN(Cc3ccc(-n4cc(C#N)cn4)cn3)CCN2)ccc2c1COC2=O`, the IC50 [5] is reported as 0.0088 µM.

In the case of `O=[N+]([O-])c1ccc2[nH]c(CCCc3nc4cc([N+](=O)[O-])ccc4[nH]3)nc2c1`, the IC50 [1] is reported as 8 µM.

`CC1=C(N2CCC3(CCN(CCc4ccc5c(c4)Cn4nnnc4-5)CC3)C2=O)COC1=O` gave an IC50 [1] of 0.006 µM.

Compound `CC1=C(N2CCC3(CCN(CC(CO)c4ccc5c(ccc6nnnn65)c4)CC3)C2=O)COC1=O` (stereo not given) has an IC50 [1] of 0.018 µM.

Work on `O=[N+]([O-])c1ccc2nc(COCc3nc4ccc([N+](=O)[O-])cc4[nH]3)[nH]c2c1` yielded a fraction unbound [6] of 0.0161, an inhibition (Homo sapiens) greater than 50% and an inhibition (HEK293 [7]) of 28%. The inhibition [8] was greater than 50%, the IC50 [1] was 0.24 µM and the Stability [9] was 60%. The IC50 [10] was 6.2 µM, the Stability [11] was 80% and the inhibition [12] was greater than 50%. The fraction unbound [13] was 0.0086, the inhibition [14] was greater than 50% and the inhibition (HEK293 [15]) was 17%.

For `O=C1OCCc2cc([C@@H]3CN4CCN(C(=O)Cc5ccc(-n6cnnn6)cc5)C[C@H]4CO3)ccc21`, the IC50 [3] was 0.057 µM and the IC50 [4] was 75.9 µM.

Work on `O=C1OCc2cc(C3CN4CCN(C(=O)Cc5ccc(-n6cnnn6)cc5)CC4CO3)ccc21` (stereo not given) yielded an IC50 [3] of 0.065 to 0.105 µM and an IC50 [4] of 21.1 to 59.4 µM.

`CCOc1cc(-n2cc(CNC[C@H](O)c3ccc4c(c3C)COC4=O)cn2)ccc1C#N` gave an IC50 [5] of 0.0062 µM.

Compound `Cc1c(C(O)CN2CCc3nc(-n4ncc5c(C#N)cccc54)ncc3C2)ccc2c1COC2=O` (stereo not given) has an IC50 [5] of 0.038 µM.

In the case of `CC1=C(N2CCC3(CCN(C[C@@H](O)c4ccc5c(c4Cl)Cn4nnnc4-5)CC3)C2=O)COC1=O`, the IC50 [1] is reported as 0.009 µM.

— ChEMBL document CHEMBL4321786, “Discovery of Small Molecule Renal Outer Medullary Potassium (ROMK) Channel Inhibitors: A Brief History of Medicinal Chemistry Approaches To Develop Novel Diuretic Therapeutics” (J Med Chem, 2019)
